Key:
Human NSCLC A549 cells = details: 60 mg/kg i.v. day 1, 4, 8, 11, 18, 25; 10% HPβCD formulation; balb/c nu/nu mice
NCI-60 cell lines = experiment: NCI-60 cell line panel screening; format: cell-based, human; details: vs Bendamustine

Structure (SMILES) | Body weight (Human NSCLC A549 cells) [g] | T/C (%) (Human NSCLC A549 cells) | Tumor volume (mm3) (Human NSCLC A549 cells) | Tumor weight (Human NSCLC A549 cells) [g] | fold more potent than Bendamustine in the NCI-60 cell lines (NCI-60 cell lines)
Cn1c(CCCC(=O)O)nc2cc(N(CCCl)CCCl)ccc21 [Bendamustine, reference compound] | 28.6 | 71.9 | 1716.5 | 1.97 | 
Cn1c(CCCCCCC(=O)NO)nc2cc(N(CCCl)CCCl)ccc21 [NL-101] | 27.6 | 37.7 | 772.7 | 0.88 | 25-100 fold
